In article PMC9906736, “Sodium-Dependent Neutral Amino Acid Transporter 2 Can Serve as a Tertiary Carrier for L-Type Amino Acid Transporter 1-Utilizing Prodrugs” (Molecular Pharmaceutics, 2023):
“Also recorded” adds a separate entry of the source.

Assays:
MCF-7 cells = test: Concentration-dependent cellular uptake into MCF-7 cells at various pH, with and without Na+; type: cell-based, human; conditions: for cellular uptake at pH 8.5 compared to pH 7.4 / cellular uptake at pH 8.5 in the absence of Na+ / cellular uptake at pH 5.5 compared to pH 7.4: 1–200 μM, 30 min; for cellular uptake at pH 8.5 in the absence of Na+: compared to presence of Na+; for Km: pH 8.5, read-out: Km(uM)@pH8.5
Description: MCF-7 human breast adenocarcinoma cells (HTB-22) were purchased from the American Type Culture Collection (ATCC, Manassas, VA, USA). MCF-7 cells were cultured in Dulbecco’s modified Eagle’s medium supplemented with L-glutamine (2.0 mM), heat-inactivated fetal bovine serum (10%), and penicillin (50 U/mL)–streptomycin (50 μg/mL) solution. MCF-7 cells (passages 8–25) were seeded at the density of 1 × 10^5 cells/well onto 24-well plates. The cells were used for the uptake experiments 1 day after seeding. All the studies were carried out as three biological replicates from the same cell passage.
For the following experiments, the MCF-7 cells were cultured, seeded, washed with HBSS, and preincubated as described above at the desired conditions (pH 5.5, 7.4, or 8.5, with and without Na^+). […] Subsequently, the cells were washed three times with ice-cold HBSS and lysed with 500 μL of 0.1 M NaOH (60 min). […] The cell-associated concentrations of each compound normalized to protein concentration were calculated from the standard curve that was prepared by spiking known concentrations of compounds to ACN including the selected internal standard (diclofenac to all studied compounds). The protein concentrations on each plate were determined as a mean of three samples by Bio-Rad Protein Assay based on the Bradford dye-binding method using BSA as a standard protein and measuring the absorbance (595 nm) by a multiplate reader (EnVision, PerkinElmer, Inc., Waltham, MA, USA).

SNATs [1] = test: Competitive cellular uptake in the presence of unselective SNAT ligand MeAIB in MCF-7 cells; type: cell-based, human; conditions: 100 μM compound, 100 μM MeAIB, pH 7.4 or 8.5, 30 min
Description: The competitive uptake in the presence of unselective SNAT ligand, MeAIB (100 μM),[31],[32] was carried out as described above with HBSS buffer at pH 7.4 or pH 8.5 containing 100 μM of the studied compound. The cells were preincubated with the inhibitors for 10 min, and the incubation mixture was removed before adding the studied compound and the inhibitor to the cells. The competitive uptake (30 min) with the inhibitor was then carried out as the normal uptake described above. The concentrations of studied compounds were analyzed by the LC–MS/MS method and calculated from the spiked standard curve and normalized with the protein concentrations.

LAT1 [2] = conditions: cited from earlier work; for IC50: ability to compete with natural LAT1-substrate L-Leu, read-out: IC50 (μM) of [^14C]-L-Leu Uptake; for LAT1 Properties (in words): merged cell over IC50, CLint and Kp columns
LAT1 [3] = test system: LAT1; design: unit not given here; conditions: CLint = Vmax/Km; cited from earlier work
[4] = brain accumulation; cited from earlier work
SNATs [5] = test: Functionality of SNATs in MCF-7 cells with [3H]-L-proline uptake; type: cell-based, human; conditions: for inhibition of the uptake of [^3H]-L-proline: MeAIB 100 μM
Description: After removal of the culture medium, MCF-7 cells were carefully washed with prewarmed HBSS (Hank’s balanced salt solution) containing 125.0 mM NaCl (or choline chloride in Na^+-free conditions), 4.8 mM KCl, 1.2 mM MgSO4, 1.2 mM KH2PO4, 1.3 mM CaCl2, 5.6 mM glucose, and 25.0 mM 4-(2-hydroxyethyl)piperazine-1-ethanesulfonic acid (HEPES) with pH adjusted to either 7.4 or 8.5 with 1 M NaOH (or KOH in sodium-free conditions). In the experiments at lower pH (4.5–6.5), 25.0 mM HEPES was replaced by 2-(N-morpholino)ethanesulfonic acid (MES), and pH was adjusted to 4.5, 5.5, and 6.5 by 1.0 M NaOH. Preincubation was done with 500 μL of prewarmed HBSS at 37 °C for 10 min before adding substrates (250 μL in HBSS) for the uptake experiments. The functionality of SNATs in MCF-7 cells was studied with a known SNAT substrate; the cells were incubated either with [^3H]-L-proline [1 μM (PerkinElmer, Waltham, MA, USA) in uptake buffer HBSS, 250 μL] at 37 °C for 1–60 min or with the uptake buffer (250 μL) consisting of 1–600 μM L-proline (containing 2 μCi [^3H]-L-proline) at 37 °C for 60 min.[38] After incubation, the uptake was stopped by adding 500 μL of ice-cold HBSS, and the cells were washed two times with ice-cold HBSS (2 × 500 μL). The cells were then lysed with 500 μL of 0.1 M NaOH (60 min), and the lysate was mixed with 3.5 mL of Emulsifier safe cocktail (Ultima Gold, PerkinElmer, Waltham, MA, USA). The radioactivity in the cells was measured by liquid scintillation counting (MicroBeta^2 counter, PerkinElmer Waltham, MA, USA). The concentrations of [^3H]-L-proline were calculated from the spiked standard curve at each pH and normalized with the protein concentrations. The SNAT-mediated uptake was confirmed by changing the pH of the uptake buffer in the absence of sodium ions and in the presence of unselective SNAT-ligand, MeAIB (100 μM).[31],[32]

| Structure (SMILES) | cellular uptake at pH 8.5 compared to pH 7.4 (MCF-7 cells) | cellular uptake at pH 8.5 in the absence of Na+ (MCF-7 cells) | Km (MCF-7 cells) [µM] | cellular uptake in the presence of MeAIB (SNATs [1]) | IC50 (LAT1 [2]) [µM] | Intrinsic Clearance (CLint) of LAT1-mediated uptake (LAT1 [3]) | in vivo Kp values (AUCbrain/ AUCplasma) [4] | cellular uptake at pH 5.5 compared to pH 7.4 (MCF-7 cells) | further results |
| --- | --- | --- | --- | --- | --- | --- | --- | --- | --- |
| COc1cc(/C=C/C(=O)NCc2cccc(C[C@H](N)C(=O)O)c2)ccc1O [Compound 8] | much higher | sodium-sensitive | 225 | decreased | 14.2 ± 0.91 | 0.3 | 0.052 |  |  |
| COc1cc(/C=C/C(=O)Nc2cccc(C[C@H](N)C(=O)O)c2)ccc1O [Compound 7] | much higher | sodium-sensitive | 184 | decreased | 1.1 ± 0.08 |  | 0.082 |  |  |
| N[C@@H](Cc1cc(I)c(Oc2cc(I)c(O)c(I)c2)c(I)c1)C(=O)O [T4, thyroxin, reference compound] | decreased |  |  | decreased | 18 ± 1.41 | 5.5 |  | increased |  |
| CC(C(=O)Nc1ccc(C[C@H](N)C(=O)O)cc1)c1cccc(C(=O)c2ccccc2)c1 (some centres unmarked) [Compound 3] | higher | increased | 131 | decreased | 51.16 ± 0.1 | 8.3 | 0.050 | higher |  |
| CCCN(CCC)S(=O)(=O)c1ccc(C(=O)O)cc1 [PRB, probenecid, reference compound] | decreased |  |  | did not affect |  |  |  | increased | LAT1 Properties (in words) (LAT1 [2]): Not an LAT1 substrate |
| N[C@@H](Cc1cccc(C(=O)OCc2ccc(-c3ccc(-c4ccc5c(c4)COC5=O)s3)cc2)c1)C(=O)O [Compound 1] | much higher | decreased; also recorded: sodium-sensitive | 412 | decreased | 1.54 ± 0.05 | 47.1 | 0.043 |  | Vmax of cellular uptake (MCF-7 cells; pH 5.5): 29 nmol/min/mg protein; cellular uptake, times higher at pH 5.5 compared to pH 7.4 (MCF-7 cells; ratio of Vmax): 3.9 times; cellular uptake, times higher at pH 8.5 compared to pH 7.4 (MCF-7 cells; ratio of Vmax): 9.3 times |
| CC(C(=O)NCC[C@H](N)C(=O)O)c1cccc(C(=O)c2ccccc2)c1 (some centres unmarked) [Compound 6] | decreased |  | 422 | decreased | 89.1 ± 4.19 |  | 0.317 |  |  |
| CC(C(=O)NCc1cccc(C[C@H](N)C(=O)O)c1)c1cccc(C(=O)c2ccccc2)c1 (some centres unmarked) [Compound 4] | much higher | sodium-sensitive | 40 | decreased | 0.12 ± 0.01 | 4.5 | 0.017 |  |  |
| N[C@@H](Cc1c[nH]c2ccccc12)C(=O)O [L-Trp, reference compound] | did not affect | did not affect |  | did not affect | 50.5 ± 2.63 | 146 |  | did not affect |  |
| CC(C(=O)Nc1cccc(C[C@H](N)C(=O)O)c1)c1cccc(C(=O)c2ccccc2)c1 (some centres unmarked) [Compound 2] | did not affect | did not affect | 291 | did not affect | 0.54 ± 0.05 | 11.2 | 0.045 | did not affect |  |
| CC(C(=O)NCCCC[C@H](N)C(=O)O)c1cccc(C(=O)c2ccccc2)c1 (some centres unmarked) [Compound 5] | much higher | sodium-sensitive | 102 | decreased | 82.7 ± 1.45 | 1.3 | 0.022 |  |  |
| CNC(C)(C)C(=O)O [MeAIB, α-(methylamino)isobutyric acid] |  |  |  |  |  |  |  |  | inhibition of the uptake of [^3H]-L-proline (SNATs [5]; [^3H]-L-proline 25 μM): negligible; inhibition of the uptake of [^3H]-L-proline (SNATs [5]; [^3H]-L-proline 50 and 100 μM): able to inhibit; LAT1 Properties (in words) (LAT1 [2]): Not an LAT1 substrate |
| O=C(O)[C@@H]1CCCN1 [[^3H]-L-proline] |  |  |  |  |  |  |  |  | Km (SNATs [5]; MCF-7 cells, 10–600 μM, 60 min): 1.47 ± 0.257 mM; Vmax of [^3H]-L-proline uptake (SNATs [5]; MCF-7 cells, 10–600 μM, 60 min): 1.13 ± 0.15 nmol/min/mg protein; pH dependency of uptake (SNATs [5]; MCF-7 cells, pH 4.5–8.5 in the presence of Na+): significant pH dependency; uptake in the absence of sodium (SNATs [5]; MCF-7 cells, pH 7.4): significantly reduced |
